Test [1] relates to pathogens of clinical samples. Description: Molecular phenotypic antimicrobial susceptibility test of clinical samples, extraction DNA purification step prior to PCR (Table 6). The format is cell-based. The method in brief: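 Patient specimens in boric acid preservative were culture-incubated, diluted to 0.5 McFarland and exposed for 12-16 hours to antimicrobials in broth at their sensitivity breakpoint concentration(s), with a no-drug well for pathogen load. Growth was then measured by semi-quantitative PCR, either after DNA purification (e.g. magnetic beads) or directly after lysis-buffer treatment without extraction.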

Test [2] relates to E. coli. Description: Molecular phenotypic antimicrobial susceptibility test, specimen with two detected pathogens incubated together without isolation. The format is cell-based, Escherichia coli. The settings on record: E. coli in specimen with two detected pathogens (E. coli and M. morganii) incubated together; for Ct of Sensitive Breakpoint: Ct of controls (average) 15.93; for Molecular Antimicrobial Susceptibility Result: at sensitive breakpoint. In outline: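 Specimen in boric acid; pathogens identified by PCR while a parallel aliquot grew 4-6 h in liquid medium. With >10,000 cells/mL detected, culture diluted to 0.5 McFarland and exposed to antimicrobials in broth (e.g. Mueller Hinton) at breakpoint concentrations; both pathogens incubated together unisolated, growth read by molecular methods against medium-only wells.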

Setting [3] is: E. coli, clinical sample of r10-r24.
Where [4] appears, read: E. coli, clinical sample of r10-r24, Ct Control Avg 18.112.
The mark [5] stands for this setting: E. coli, clinical sample of r158-r172.
Setting [6] is: E. coli, clinical sample of r158-r172, Ct Control Avg 20.146.
[7] abbreviates: K. aerogenes, clinical sample of r136-r150.
The mark [8] stands for this setting: K. aerogenes, clinical sample of r136-r150, Ct Control Avg 19.994.
[9] abbreviates: K. pneumoniae, clinical sample of r121-r135.
The mark [10] stands for this setting: K. pneumoniae, clinical sample of r121-r135, Ct Control Avg 24.272.
Setting [11] is: M. morganii, clinical sample of r55-r69.
The mark [12] stands for this setting: M. morganii, clinical sample of r55-r69, Ct Control Avg 28.86.
[13] abbreviates: M. morganii, clinical sample of r70-r84.
Where [14] appears, read: M. morganii, clinical sample of r70-r84, Ct Control Avg 27.053.
Where [15] appears, read: P. mirabilis, clinical sample of r25-r39.
The mark [16] stands for this setting: P. mirabilis, clinical sample of r25-r39, Ct Control Avg 26.064.
Setting [17] is: P. mirabilis, clinical sample of r40-r54.
Setting [18] is: P. mirabilis, clinical sample of r40-r54, Ct Control Avg 26.987.
Where [19] appears, read: S. aureus, clinical sample of r85-r92.
[20] abbreviates: S. aureus, clinical sample of r85-r92, Ct Control Avg 24.32.

For Piperacillin/Tazobactam, the “Molecular Antibiotic Susceptibility Result” value in test [1] (setting [3]), in test [1] (setting [5]), in test [1] (setting [7]), in test [1] (setting [9]), in test [1] (setting [11]) and in test [1] (setting [13]) was “Sensitive (Antimicrobial wells with pathogen load detected below the control wells (typically >2 cycle thresholds later) may be reported as Sensitive)” in each case. For the same compound, the “Molecular Antibiotic Susceptibility Result” value in test [1] (setting [15]) and in test [1] (setting [17]) was “Sensitive (Antimicrobial wells with pathogen load detected below the control wells (typically >2 cycle thresholds later) may be reported as Sensitive)” in each case. In addition, the Ct in test [1] (setting [4]) was 26.499; in test [1] (setting [6]), 30.693; in test [1] (setting [8]) it was 32.586; in test [1] (setting [10]), 34.274; in test [1] (setting [12]), 36.138; in test [1] (setting [14]), “Undet”. The Ct in test [1] (setting [16]) is on record as 28.92; in test [1] (setting [18]) it was 33.895. Also, in test [2], the “Ct of Sensitive Breakpoint” value was determined as 27.51. The “Molecular Antimicrobial Susceptibility Result” value in test [2] is “Sensitive (Antimicrobial wells with pathogen load detected below the control wells (typically >2 cycle thresholds later) may be reported as Sensitive)”.
Take `O=C1CN(/N=C/c2ccc([N+](=O)[O-])o2)C(=O)N1` [Nitrofurantoin]: the “Molecular Antibiotic Susceptibility Result” value is “Sensitive (Antimicrobial wells with pathogen load detected below the control wells (typically >2 cycle thresholds later) may be reported as Sensitive)” in test [1] (setting [3]); “Sensitive (Antimicrobial wells with pathogen load detected below the control wells (typically >2 cycle thresholds later) may be reported as Sensitive)” in test [1] (setting [5]); “Sensitive (Antimicrobial wells with pathogen load detected below the control wells (typically >2 cycle thresholds later) may be reported as Sensitive)” in test [1] (E. faecalis, clinical sample of r93-r99); “Sensitive (Antimicrobial wells with pathogen load detected below the control wells (typically >2 cycle thresholds later) may be reported as Sensitive)” in test [1] (E. faecalis, clinical sample of r114-r120); “Sensitive (Antimicrobial wells with pathogen load detected below the control wells (typically >2 cycle thresholds later) may be reported as Sensitive)” in test [1] (E. faecalis, clinical sample of r151-r157); “Sensitive (Antimicrobial wells with pathogen load detected below the control wells (typically >2 cycle thresholds later) may be reported as Sensitive)” in test [1] (setting [7]). The “Molecular Antibiotic Susceptibility Result” value is given as “Sensitive (Antimicrobial wells with pathogen load detected below the control wells (typically >2 cycle thresholds later) may be reported as Sensitive)” in test [1] (setting [9]); “Sensitive (Antimicrobial wells with pathogen load detected below the control wells (typically >2 cycle thresholds later) may be reported as Sensitive)” in test [1] (setting [11]); “Sensitive (Antimicrobial wells with pathogen load detected below the control wells (typically >2 cycle thresholds later) may be reported as Sensitive)” in test [1] (setting [13]); “Resistant” in test [1] (setting [15]); “Resistant” in test [1] (setting [17]); “Sensitive (Antimicrobial wells with pathogen load detected below the control wells (typically >2 cycle thresholds later) may be reported as Sensitive)” in test [1] (setting [19]). In addition, the Ct is 29.981 in test [1] (setting [4]); 34.794 in test [1] (setting [6]); 38.744 in test [1] (E. faecalis, clinical sample of r93-r99, Ct Control Avg 22.987); 37.449 in test [1] (E. faecalis, clinical sample of r100-r106, Ct Control Avg 23.073); 32.584 in test [1] (E. faecalis, clinical sample of r107-r113, Ct Control Avg 22.144); 34.318 in test [1] (E. faecalis, clinical sample of r114-r120, Ct Control Avg 20.822). Further, the Ct in test [1] (setting [8]) is 38.755; in test [1] (setting [10]), 33.13; in test [1] (setting [16]), 22.903; in test [1] (setting [18]), 23.887; in test [1] (setting [20]) it was 30.822. Further, the “Ct of Sensitive Breakpoint” value in test [2] is given as 27.36. The “Molecular Antimicrobial Susceptibility Result” value in test [2] is listed as “Sensitive (Antimicrobial wells with pathogen load detected below the control wells (typically >2 cycle thresholds later) may be reported as Sensitive)”.
`CO[C@@]1(NC(=O)Cc2cccs2)C(=O)N2C(C(=O)O)=C(COC(N)=O)CS[C@@H]21` [Cefoxitin]: the “Molecular Antibiotic Susceptibility Result” value is “Sensitive (Antimicrobial wells with pathogen load detected below the control wells (typically >2 cycle thresholds later) may be reported as Sensitive)” in test [1] (setting [3]); “Sensitive (Antimicrobial wells with pathogen load detected below the control wells (typically >2 cycle thresholds later) may be reported as Sensitive)” in test [1] (setting [5]); “Resistant” in test [1] (setting [7]); “Sensitive (Antimicrobial wells with pathogen load detected below the control wells (typically >2 cycle thresholds later) may be reported as Sensitive)” in test [1] (setting [9]); “Sensitive (Antimicrobial wells with pathogen load detected below the control wells (typically >2 cycle thresholds later) may be reported as Sensitive)” in test [1] (setting [11]); “Sensitive (Antimicrobial wells with pathogen load detected below the control wells (typically >2 cycle thresholds later) may be reported as Sensitive)” in test [1] (setting [13]). Besides, the “Molecular Antibiotic Susceptibility Result” value in test [1] (setting [15]) was “Sensitive (Antimicrobial wells with pathogen load detected below the control wells (typically >2 cycle thresholds later) may be reported as Sensitive)”; in test [1] (setting [17]) it was “Sensitive (Antimicrobial wells with pathogen load detected below the control wells (typically >2 cycle thresholds later) may be reported as Sensitive)”; in test [1] (setting [19]), “Resistant”. Further, the Ct in test [1] (setting [4]) worked out at 26.364; in test [1] (setting [6]) it was 31.631; in test [1] (setting [8]) it was 20.635; in test [1] (setting [10]) it was 32.55; in test [1] (setting [12]) it was 37.168; in test [1] (setting [14]), 35.243. The values for the Ct in test [1] (setting [16]), in test [1] (setting [18]) and in test [1] (setting [20]) were 29.443, 30.603 and 15.037, respectively. For the same compound, the “Ct of Sensitive Breakpoint” value in test [2] turned out to be 18.30. Further, in test [2], the “Molecular Antimicrobial Susceptibility Result” value was “Sensitive (Antimicrobial wells with pathogen load detected below the control wells (typically >2 cycle thresholds later) may be reported as Sensitive)”.
